Source: patent publication US9249128B2 (priority 2010, dated 2016)
Where two headings read alike, the source gives them in different places.

What was measured:
[1] = biological target: T1, KIAA1363 (Mus musculus, UniProt Q8BLF1); experiment: Gel-based competitive ABPP of KIAA1363 in mouse brain membrane proteome (FP-rhodamine); assay type: biochemical
T1 construct: ABPP analysis of KIAA1363 activity in mouse brain membrane proteome; from tissue; host or cells: mouse brain (membrane fraction)
T1 sequence (Q8BLF1 1-408): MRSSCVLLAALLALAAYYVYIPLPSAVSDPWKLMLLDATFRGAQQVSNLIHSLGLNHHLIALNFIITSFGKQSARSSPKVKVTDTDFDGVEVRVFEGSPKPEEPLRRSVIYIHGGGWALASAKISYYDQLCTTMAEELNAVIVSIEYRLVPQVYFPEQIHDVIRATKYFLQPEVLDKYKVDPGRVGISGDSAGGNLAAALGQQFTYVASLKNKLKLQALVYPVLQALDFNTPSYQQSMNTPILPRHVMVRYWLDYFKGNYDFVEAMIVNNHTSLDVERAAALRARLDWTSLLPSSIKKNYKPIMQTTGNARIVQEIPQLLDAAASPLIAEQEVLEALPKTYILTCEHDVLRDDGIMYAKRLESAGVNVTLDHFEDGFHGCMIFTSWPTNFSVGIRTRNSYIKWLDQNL
How it was run: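 Mouse brain membrane fraction (100,000×g pellet) in PBS pH 7.4, preincubated with inhibitor 30 min, then labelled with 1 μM FP-rhodamine for 30 min. Remaining KIAA1363 activity read by SDS/PAGE in-gel fluorescence. IC50 averaged from three replicates.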

[2] = tested on: MAGE levels in PC3 and DU145 cells; experiment: Lipid (MAGE) measurements in cancer cells; assay type: cell-based, human; details: for MAGE levels: 10 μM, 4 h in situ
Procedure: (§1) Inhibitors were dissolved in DMSO and diluted into media or buffer prior to cell or proteome treatment, respectively. For in vitro treatment, final DMSO concentration was 4%. For in situ treatments of cells for ABPP, lipid measurements, migration, cell-survival, and invasion assays, 2×10^6 cells were seeded in 6 cm dishes (˜100% confluency) 24 h prior to inhibitor pre-treatment (in DMSO at 0.1% final concentration) in serum-free media (3 mL) for the designated time before harvesting cells for ABPP or lipid measurements or before the initiation of migration, cell-survival, and invasion assays.
Lipid measurements were performed in cancer cells as previously described (Chiang et al., 2006). Briefly, frozen cell pellets from cells harvested after 4 h serum starvation were extracted in 2:1:1 chloroform:methanol:Tris buffer pH 8.0 by dounce homogenization with 10 nmol of internal standard C12 MAGE. The organic layer was removed, dried under N2, and resuspended in 120 μL of chloroform, and 30 μL was injected into an Agilent 1100-MSD LC-MS. MAGE levels were quantified by measuring the area under the peak and were normalized to the C12 MAGE internal standard.

[3] = tested on: PC3 and DU145 cells; experiment: Invasion assay (Matrigel chambers); assay type: cell-based, human; details: for PC3 and DU145 invasion: 10 μM, 4 h in situ
Procedure: as §1
(§2) Cell migration, cell survival, and invasion studies were performed as previously described (Nomura et al., 2010). Briefly, migration assays were performed in Transwell chambers (Corning) with 8 μm pore-sized membranes coated with 10 μg/mL collagen at 37° C. for LNCaP (24 h), PC3 (4 h) and DU145 cells (24 h), respectively. Cell survival assays were performed using the Cell Proliferation Reagent WST-1 (Roche) Invasion assays were conducted using the BD Matrigel Invasion Chambers per the manufacturer's protocol. Inhibitors were preincubated for the stated duration before seeding cells into migration, cell-survival, or invasion chambers. Prior to seeding the cells in these chambers, cells were serum-starved for 4 h. Inhibitors were also present during the migration, cell-survival, and invasion assays.

[4] = biological target: T2, HSL (Mus musculus, UniProt P54310); experiment: Competitive ABPP of HSL in rosiglitazone-differentiated 3T3-10T1/2 adipocyte proteome; assay type: biochemical
T2 construct: ABPP analysis of HSL from a rosiglitazone-differentiated 3T3-10T1/2 adipocyte proteome; endogenous in cells; host or cells: rosiglitazone-differentiated 3T3-10T1/2 adipocytes
T2 sequence (P54310 1-759): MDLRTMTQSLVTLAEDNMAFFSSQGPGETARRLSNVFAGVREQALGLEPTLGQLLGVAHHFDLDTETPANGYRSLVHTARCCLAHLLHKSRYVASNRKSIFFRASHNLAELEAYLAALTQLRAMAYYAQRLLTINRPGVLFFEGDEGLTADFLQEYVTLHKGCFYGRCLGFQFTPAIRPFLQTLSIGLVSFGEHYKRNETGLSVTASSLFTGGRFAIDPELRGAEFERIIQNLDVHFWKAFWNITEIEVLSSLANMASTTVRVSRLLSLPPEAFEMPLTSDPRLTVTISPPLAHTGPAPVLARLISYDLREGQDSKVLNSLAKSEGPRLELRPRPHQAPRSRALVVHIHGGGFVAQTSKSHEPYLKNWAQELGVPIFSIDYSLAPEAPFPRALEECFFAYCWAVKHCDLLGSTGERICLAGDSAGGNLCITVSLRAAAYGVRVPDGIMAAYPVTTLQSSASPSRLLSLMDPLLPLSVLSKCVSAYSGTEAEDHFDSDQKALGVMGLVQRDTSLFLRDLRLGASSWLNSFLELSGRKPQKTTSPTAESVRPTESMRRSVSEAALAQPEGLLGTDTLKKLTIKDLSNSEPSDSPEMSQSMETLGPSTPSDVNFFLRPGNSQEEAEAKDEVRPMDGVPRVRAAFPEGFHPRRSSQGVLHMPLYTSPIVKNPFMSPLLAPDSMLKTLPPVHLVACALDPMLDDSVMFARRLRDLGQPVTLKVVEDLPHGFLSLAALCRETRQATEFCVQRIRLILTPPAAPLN
Procedure: For ABPP experiments, cell lysate and tissue proteomes were treated with 1 μM FP-rhodamine for 30 min at room temperature (50 μL total reaction volume) as described previously (Nomura et al., 2010). Reactions were quenched with one volume of standard 4×SDS/PAGE loading buffer (reducing), separated by SDS/PAGE (10% acrylamide), and visualized in-gel with a Hitachi FMBio IIe flatbed fluorescence scanner (MiraiBio). Inhibitors were preincubated prior (30 min or 4 h at 37° C. in vitro or in situ, respectively) to the addition of FP-rhodamine.

[5] = tested on: PC3 and DU145 cells; experiment: Serum-free cell survival assay (WST-1); assay type: cell-based, human; details: for PC3 and DU145 serum-free cell survival: 10 μM, 4 h in situ
Procedure: as §1, §2

[6] = tested on: PC3 and DU145 cells; experiment: Cell migration assay (Transwell); assay type: cell-based, human; details: for PC3 and DU145 migration: 10 μM, 4 h in situ
Procedure: as §1, §2

[7] = competitive ABPP in mouse brain proteome, n=3, read-out: IC50 for KIAA1363 (FIG. 2D)
[8] = mouse brain KIAA1363, read-out: IC50 for KIAA1363
[9] = mouse brain membrane proteome, inhibitor 30 min before FP-rhodamine (1 μM, 30 min), averages of three replicates, read-out: IC50 (KIAA1363)

Row | SMILES | IC50 [1, 7] [nM] | IC50 [1, 8] [nM] | IC50 [1, 9] [nM] | IC50 ([1]; screened against KIAA1363, Table 1, read-out: IC50 values of around 10 nanomolar (most potent)) [nM] | MAGE lipids ([2]; 1 μM, 48 hr) | MAGE levels [2] | Invasion of PC3 cells ([3]; 1 μM, 48 h in situ) | PC3 and DU145 invasion [3] | Cross-reactivity with HSL [4] | Serum-free cell survival of PC3 cells ([5]; 1 μM, 48 h in situ) | PC3 and DU145 serum-free cell survival [5] | Migration of PC3 cells ([6]; 1 μM, 48 h in situ) | PC3 and DU145 migration [6] | IC50 ([1]; screened against KIAA1363, Table 1, read-out: IC50 values of less than 1 micromolar) [nM]
1 | CC(C)c1ccccc1OC(=O)NCCc1ccc2ccccc2c1 [JW480, 2-isopropylphenyl (2-(naphthalen-2-yl)ethyl)carbamate] | 20 | 20 | 13.9 | ~10 | significant reductions | lower MAGE levels | reduced | impair | negligible cross-reactivity | reduced | impair | reduced | impair | –
2 | COc1ccc(CNC(=O)Oc2cccc3c2OC(C)(C)C3)cc1 [JW148, 2,2-dimethyl-2,3-dihydrobenzofuran-7-yl 4-methoxybenzylcarbamate] | 200 | ~200 | 117 | – | – | lower MAGE levels | – | impair | cross-reactivity | – | impair | – | impair | < 1000
